# Test results as given in patent US20250051363A1, “Substituted Pyrazolopyridines” (Neuro3 Therapeutics, Inc., priority 2023, published 2025).
# Counter-ions that a name gives are not always drawn.
# Target: LRRK2 wild-type (Homo sapiens (Human), UniProt Q5S007)
# Assay: LanthaScreen LRRK2 Biochemical Activity Assay
# Settings: human recombinant LRRK2 (amino acids 970-2527) wild-type, ATP 57 μM, TR-FRET; read-out: IC50 (nM), inhibition of LRRK2 wild-type kinase activity
# Procedure: The ability of a compound of Formula (I) to inhibit LRRK2 kinase activity is measured using a LanthaScreen™ kinase activity assay. In general, in a LanthaScreen™ kinase activity assay, kinase, fluorescein-labeled substrate, and ATP are allowed to react. Then EDTA (to stop the reaction) and terbium-labeled antibody (to detect phosphorylated product) are added. In a LanthaScreen™ kinase reaction, the antibody associates with the phosphorylated fluorescein labeled substrate resulting in an increased TR-FRET value. The TR-FRET value is a dimensionless number that is calculated as the ratio of the acceptor (fluorescein) signal to the donor (terbium) signal. The amount of antibody that is bound to the tracer is directly proportional to the amount of phosphorylated substrate present, and in this manner, kinase activity can be detected and measured by an increase in the TR-FRET value. Accordingly, in this Example, enzyme reactions are carried out in a kinase reaction buffer in the presence or absence of representative compounds of Formula (I) at various concentrations in 384-well plate at room temperature for 60 minutes. The kinase reaction buffer contains human recombinant LRRK2 protein (amino acids 970-2527, 5 nM), ATP (57 μM for LRRK2 wild-type, 134 μM for G2019S mutant protein), Fluorescein-LRRKtide substrate (0.4 mM), 50 mM Tris pH 7.5, 10 mM MgCl2, 1 mM EGTA, 0.01% Brij™-35, and 2 mM DTT. The final reaction volume for each reaction is 10 μL. The reactions are initated by adding the substrate and stopped by the addition of 10 μL of a TR-FRET dilution buffer supplemented with a kinase quench buffer (10 mM EDTA final) and Tb-anti-pLRRKtide (2 nM final). The plate is further incubated at room temperature for another 60 minutes, and the fluorescent signals are read on an EnVision® multilabel plate reader (PerkinElmer, Waltham, MA) with excitation at 340 nm and emission at 495 and 520 nm. The assay signal is determined as a ratio of FRET-specific signal measured with emission filter at 520 nm to that of the signal measured with Tb-specific emission filter at 495 nm. IC50 values for compound-mediated enzyme inhibition are calculated using appropriate programs in GraphPad Prism software by plotting the logarithm of the compound concentrations versus percent inhibition. All reagents are purchased from Thermo Fisher Scientific.
# Sequence of LRRK2 wild-type (Q5S007 970-2527): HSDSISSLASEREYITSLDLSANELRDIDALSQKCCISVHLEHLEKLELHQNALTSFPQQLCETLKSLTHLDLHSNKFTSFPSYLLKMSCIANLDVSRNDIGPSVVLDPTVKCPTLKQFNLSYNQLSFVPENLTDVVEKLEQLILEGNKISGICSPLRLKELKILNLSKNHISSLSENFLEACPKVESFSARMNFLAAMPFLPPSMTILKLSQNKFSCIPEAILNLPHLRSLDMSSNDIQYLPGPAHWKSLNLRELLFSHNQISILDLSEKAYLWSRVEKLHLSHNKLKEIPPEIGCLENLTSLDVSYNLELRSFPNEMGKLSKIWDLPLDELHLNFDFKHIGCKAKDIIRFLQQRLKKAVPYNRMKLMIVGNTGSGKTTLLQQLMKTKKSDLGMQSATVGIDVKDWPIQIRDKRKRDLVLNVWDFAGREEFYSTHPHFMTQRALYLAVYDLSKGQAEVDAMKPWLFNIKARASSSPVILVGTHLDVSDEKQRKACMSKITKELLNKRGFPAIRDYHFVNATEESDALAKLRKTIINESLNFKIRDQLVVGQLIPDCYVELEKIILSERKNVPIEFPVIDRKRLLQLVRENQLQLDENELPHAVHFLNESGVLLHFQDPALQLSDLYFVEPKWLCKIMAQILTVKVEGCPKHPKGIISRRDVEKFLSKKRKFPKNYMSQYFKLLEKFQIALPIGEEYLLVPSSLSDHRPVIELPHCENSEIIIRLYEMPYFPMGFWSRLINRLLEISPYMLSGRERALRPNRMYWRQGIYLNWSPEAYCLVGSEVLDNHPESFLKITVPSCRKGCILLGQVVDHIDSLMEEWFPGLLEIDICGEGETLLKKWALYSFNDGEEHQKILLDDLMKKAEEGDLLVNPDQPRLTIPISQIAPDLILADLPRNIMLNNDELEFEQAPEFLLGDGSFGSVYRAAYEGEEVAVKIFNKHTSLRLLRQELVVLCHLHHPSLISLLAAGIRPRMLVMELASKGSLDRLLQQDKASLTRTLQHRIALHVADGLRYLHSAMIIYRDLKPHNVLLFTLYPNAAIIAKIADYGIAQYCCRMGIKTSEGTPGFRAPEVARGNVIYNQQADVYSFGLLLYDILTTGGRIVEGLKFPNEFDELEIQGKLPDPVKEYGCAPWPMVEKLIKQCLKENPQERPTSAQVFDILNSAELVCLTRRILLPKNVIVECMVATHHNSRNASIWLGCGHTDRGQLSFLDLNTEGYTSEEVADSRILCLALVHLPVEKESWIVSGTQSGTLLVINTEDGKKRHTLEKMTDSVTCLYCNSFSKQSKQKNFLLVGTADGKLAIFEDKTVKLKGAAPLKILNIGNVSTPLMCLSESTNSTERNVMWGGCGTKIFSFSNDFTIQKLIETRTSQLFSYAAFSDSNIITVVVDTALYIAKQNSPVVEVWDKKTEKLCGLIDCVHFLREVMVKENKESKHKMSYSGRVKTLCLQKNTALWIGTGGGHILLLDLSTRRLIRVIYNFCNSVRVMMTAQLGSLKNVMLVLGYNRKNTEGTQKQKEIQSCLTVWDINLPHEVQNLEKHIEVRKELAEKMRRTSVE
row,SMILES,IC50 [nM]
1,"Clc1ccn2ncc(-c3cccc(N4CCNCC4)n3)c2c1 [Example 42, 5-chloro-3-(6-piperazin-1-yl-2-pyridyl)pyrazolo[1,5-a]pyridine]",11 to 100
2,"Clc1cc(-c2cnn3ccc(Cl)cc23)nc(N2CCNCC2)c1 [Example 43, 5-chloro-3-(4-chloro-6-piperazin-1-yl-2-pyridyl)pyrazolo[1,5-a]pyridine]",11 to 100
3,"Fc1cc(-c2cnn3ccc(Cl)cc23)nc(N2CCNCC2)c1 [Example 44, 5-chloro-3-(4-fluoro-6-piperazin-1-yl-2-pyridyl)pyrazolo[1,5-a]pyridine]",11 to 100
4,"c1cc(-c2cnn3ccccc23)nc(N2CC3CC(C2)N3)c1 [Example 45, 3-[6-(3,6-Diazabicyclo[3.1.1]heptan-3-yl)-2-pyridyl]pyrazolo[1,5-a]pyridine]",101 to 400
5,"Clc1ccn2ncc(-c3cccc(N4CC5CC(C4)N5)n3)c2c1 [Example 46, 3-(6-(5-chloropyrazolo[1,5-a]pyridin-3-yl)pyridin-2-yl)-3,6-diazabicyclo[3.1.1]heptane]",11 to 100
6,"Clc1cc(-c2cnn3ccc(Cl)cc23)nc(N2CC3CC(C2)N3)c1 [Example 47, 5-chloro-3-[4-chloro-6-(3,6-diazabicyclo[3.1.1]heptan-3-yl)-2-pyridyl]pyrazolo[1,5-a]pyridine]",101 to 400
7,"c1cc(-c2cnn3ccccc23)nc(N2CC3CCC2CN3)c1 (stereo not shown) [Example 48, 3-[6-(2,5-diazabicyclo[2.2.2]octan-2-yl)-2-pyridyl]pyrazolo[1,5-a]pyridine]",101 to 400
8,"C[C@@H]1CN(c2cccc(-c3cnn4ccccc34)n2)C[C@H](C)N1 [Example 49, 3-[6-[(3S,5R)-3,5-dimethylpiperazin-1-yl]-2-pyridyl]pyrazolo[1,5-a]pyridine]",11 to 100
9,"C[C@@H]1CN(c2cccc(-c3cnn4ccccc34)n2)C[C@@H](C)N1 [Example 50, 3-[6-[(3R,5R)-3,5-dimethylpiperazin-1-yl]-2-pyridyl]pyrazolo[1,5-a]pyridine]",11 to 100
10,"C[C@@H]1CN(c2cc(Cl)cc(-c3cnn4ccccc34)n2)C[C@H](C)N1 [Example 51, 3-[4-chloro-6-[(3S,5R)-3,5-dimethylpiperazin-1-yl]-2-pyridyl]pyrazolo[1,5-a]pyridine]",11 to 100
11,"C[C@@H]1CN(c2cc(F)cc(-c3cnn4ccccc34)n2)C[C@H](C)N1 [Example 52, 3-[6-[(3R,5S)-3,5-dimethylpiperazin-1-yl]-4-fluoro-2-pyridyl]pyrazolo[1,5-a]pyridine]",11 to 100
12,"CNc1ccn2ncc(-c3cccc(N4C[C@@H](C)N[C@@H](C)C4)n3)c2c1 [Example 53, 3-[6-[(3S,5R)-3,5-dimethylpiperazin-1-yl]-2-pyridyl]-N-methyl-pyrazolo[1,5-a]pyridin-5-amine]",11 to 100
13,"CNc1ccn2ncc(-c3cc(Cl)cc(N4C[C@@H](C)N[C@@H](C)C4)n3)c2c1 [Example 54, 3-[4-chloro-6-[(3S,5R)-3,5-dimethylpiperazin-1-yl]-2-pyridyl]-N-methyl-pyrazolo[1,5-a]pyridin-5-amine]",11 to 100
14,"C[C@@H]1CN(c2cccc(-c3cnn4ccc(C(F)(F)F)cc34)n2)C[C@H](C)N1 [Example 55, 3-[6-[(3S,5R)-3,5-dimethylpiperazin-1-yl]-2-pyridyl]-5-(trifluoromethyl)pyrazolo[1,5-a]pyridine]",≤ 10
15,"C[C@@H]1CN(c2cc(Cl)cc(-c3cnn4ccc(C(F)(F)F)cc34)n2)C[C@H](C)N1 [Example 56, 3-[4-chloro-6-[(3S,5R)-3,5-dimethylpiperazin-1-yl]-2-pyridyl]-5-(trifluoromethyl)pyrazolo[1,5-a]pyridine]",≤ 10
16,"C[C@@H]1CN(c2cccc(-c3cnn4ccc(Cl)cc34)n2)C[C@H](C)N1 [Example 57, 5-chloro-3-[6-[(3R,5S)-3,5-dimethylpiperazin-1-yl]-2-pyridyl]pyrazolo[1,5-a]pyridine]",≤ 10
17,"C[C@@H]1CN(c2cc(F)cc(-c3cnn4ccc(Cl)cc34)n2)C[C@H](C)N1 [Example 58, 5-chloro-3-[6-[(3R,5S)-3,5-dimethylpiperazin-1-yl]-4-fluoro-2-pyridyl]pyrazolo[1,5-a]pyridine]",≤ 10

row,SMILES,IC50 [nM]
1,"C[C@@H]1CN(c2cc(Cl)cc(-c3cnn4ccc(Cl)cc34)n2)C[C@H](C)N1 [Example 59, 5-chloro-3-[4-chloro-6-[(3S,5R)-3,5-dimethylpiperazin-1-yl]-2-pyridyl]pyrazolo[1,5-a]pyridine]",≤ 10
2,"C[C@@H]1CN(c2nc(-c3cnn4ccc(Cl)cc34)ccc2Cl)C[C@H](C)N1 [Example 60, 5-chloro-3-[5-chloro-6-[(3S,5R)-3,5-dimethylpiperazin-1-yl]-2-pyridyl]pyrazolo[1,5-a]pyridine]",101 to 400
3,"C[C@@H]1CN(c2nc(-c3cnn4ccc(Cl)cc34)ccc2F)C[C@H](C)N1 [Example 61, 5-chloro-3-[6-[(3S,5R)-3,5-dimethylpiperazin-1-yl]-5-fluoro-2-pyridyl]pyrazolo[1,5-a]pyridine]",≤ 10
4,"CNc1ccn2ncc(-c3cc(Cl)cc(C4CCCNC4)n3)c2c1 (stereo not shown) [Example 62, 3-[4-chloro-6-(3-piperidyl)-2-pyridyl]-N-methyl-pyrazolo[1,5-a]pyridin-5-amine]",11 to 100
5,"C[C@@H]1CN(c2ccc(Cl)c(-c3cnn4ccc(Cl)cc34)n2)C[C@H](C)N1 [Example 63, 5-chloro-3-[3-chloro-6-[(3S,5R)-3,5-dimethylpiperazin-1-yl]-2-pyridyl]pyrazolo[1,5-a]pyridine]",≤ 10
6,"C[C@@H]1CN(c2ccc(F)c(-c3cnn4ccc(Cl)cc34)n2)C[C@H](C)N1 [Example 64, 5-chloro-3-[6-[(3S,5R)-3,5-dimethylpiperazin-1-yl]-3-fluoro-2-pyridyl]pyrazolo[1,5-a]pyridine]",11 to 100
7,"CC(C)Oc1ccn2ncc(-c3cc(Cl)cc(C4CCCNC4)n3)c2c1 (stereo not shown) [Example 65, 3-[4-chloro-6-(3-piperidyl)-2-pyridyl]-5-isopropoxy-pyrazolo[1,5-a]pyridine]",≤ 10
8,"CC1(C)CN(c2cccc(-c3cnn4ccc(Cl)cc34)n2)CC(C)(C)N1 [Example 66, 5-chloro-3-[6-(3,3,5,5-tetramethylpiperazin-1-yl)-2-pyridyl]pyrazolo[1,5-a]pyridine]",≤ 10
9,"CS(=O)(=O)CC(=O)Nc1ccn2ncc(-c3cccc(C4CCCNC4)n3)c2c1 (stereo not shown) [Example 67, 2-(methylsulfonyl)-N-(3-(6-(piperidin-3-yl)pyridin-2-yl)pyrazolo[1,5-a]pyridin-5-yl)acetamide]",11 to 100
10,"CS(=O)(=O)NCC(=O)Nc1ccn2ncc(-c3cccc(C4CCCNC4)n3)c2c1 (stereo not shown) [Example 68, 2-(methylsulfonamido)-N-(3-(6-(piperidin-3-yl)pyridin-2-yl)pyrazolo[1,5-a]pyridin-5-yl)acetamide]",11 to 100
11,"C[C@@H]1CN(c2cccc(-c3cnn4ccccc34)n2)CCN1 [Example 69, (R)-3-(6-(3-methylpiperazin-1-yl)pyridin-2-yl)pyrazolo[1,5-a]pyridine formate]",11 to 100
12,"C[C@H]1CN(c2cccc(-c3cnn4ccccc34)n2)CCN1 [Example 70, (S)-3-(6-(3-methylpiperazin-1-yl)pyridin-2-yl)pyrazolo[1,5-a]pyridine formate]",11 to 100
13,"C[C@@H]1CN(c2cccc(-c3cnn4ccc(Cl)cc34)n2)C[C@H](C)N1C [Example 71, 5-chloro-3-(6-((3S,5R)-3,4,5-trimethylpiperazin-1-yl)pyridin-2-yl)pyrazolo[1,5-a]pyridine]",11 to 100
14,"O=C(Nc1ccn2ncc(-c3cccc(C4CCCNC4)n3)c2c1)c1ccccn1 (stereo not shown) [Example 72, N-(3-(6-(piperidin-3-yl)pyridin-2-yl)pyrazolo[1,5-a]pyridin-5-yl)picolinamide]",11 to 100
15,"O=C(COc1ccccn1)Nc1ccn2ncc(-c3cccc(C4CCCNC4)n3)c2c1 (stereo not shown) [Example 73, N-(3-(6-(piperidin-3-yl)pyridin-2-yl)pyrazolo[1,5-a]pyridin-5-yl)-2-(pyridin-2-yloxy)acetamide]",11 to 100
16,"N#CCCC(=O)Nc1ccn2ncc(-c3cccc(C4CCCNC4)n3)c2c1 (stereo not shown) [Example 74, 3-cyano-N-(3-(6-(piperidin-3-yl)pyridin-2-yl)pyrazolo[1,5-a]pyridin-5-yl)propanamide]",11 to 100
17,"N#CCCCC(=O)Nc1ccn2ncc(-c3cccc(C4CCCNC4)n3)c2c1 (stereo not shown) [Example 75, 4-cyano-N-(3-(6-(piperidin-3-yl)pyridin-2-yl)pyrazolo[1,5-a]pyridin-5-yl)butanamide]",11 to 100
